Assay results published in PubChem BioAssay (NCI).
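Exposure lasted 48 hours, with cells grown in 96-well plates and compounds tested at five concentrations. The concentration for full growth arrest is given as TGI.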

What was measured:
Assay in all cases: NCI anticancer screen, dose series, 48 h
[1] = test system: SN12C renal
[2] = test system: HS 578T breast
[3] = test system: ACHN renal
[4] = test system: XF 498 CNS
[5] = test system: MALME-3M melanoma
[6] = test system: LXFL 529 NSCLC
[7] = test system: SF-295 CNS
[8] = test system: NCI-H522 lung
[9] = test system: LOX IMVI melanoma
[10] = test system: HL-60(TB) leukemia
[11] = test system: SF-539 CNS
[12] = test system: NCI-H23 lung
[13] = test system: KM20L2 colon
[14] = test system: COLO 205 colon
[15] = test system: K-562 leukemia
[16] = test system: DMS 114 small cell lung
[17] = test system: SNB-75 CNS
[18] = test system: HOP-62 NSCLC
[19] = test system: HCT-116 colon
[20] = test system: RPMI-8226 leukemia
[21] = test system: A498 renal
[22] = test system: IGROV1 ovarian
[23] = test system: TK-10 renal
[24] = test system: OVCAR-8 ovarian
[25] = test system: HCT-15 colon
[26] = test system: UACC-257 melanoma
[27] = test system: SK-MEL-28 melanoma
[28] = test system: SK-MEL-2 melanoma
[29] = test system: UO-31 renal
[30] = test system: HOP-92 NSCLC
[31] = test system: M19-MEL melanoma
[32] = test system: MDA-N
[33] = test system: SK-OV-3 ovarian
[34] = test system: SR leukemia
[35] = test system: MCF7 breast
[36] = test system: RXF 393 renal
[37] = test system: SK-MEL-5 melanoma
[38] = test system: U251 CNS
[39] = test system: CAKI-1 renal
[40] = test system: 786-0 renal
[41] = test system: T-47D breast
[42] = test system: SF-268 CNS
[43] = test system: SW-620 colon
[44] = test system: M14 melanoma
[45] = test system: DLD-1 colon
[46] = test system: BT-549 breast
[47] = test system: NCI/ADR-RES ovarian
[48] = test system: KM12 colon
[49] = test system: OVCAR-3 ovarian
[50] = test system: EKVX NSCLC
[51] = test system: MOLT-4 leukemia
[52] = test system: UACC-62 melanoma
[53] = test system: MDA-MB-231 breast
[54] = test system: MDA-MB-435
[55] = test system: NCI-H460 lung
[56] = test system: CCRF-CEM leukemia
[57] = test system: HT29 colon
[58] = test system: NCI-H226 lung
[59] = test system: OVCAR-5 ovarian
[60] = test system: A549 NSCLC
[61] = test system: HCC-2998 colon
[62] = test system: DU-145 prostate
[63] = test system: PC-3 prostate
[64] = test system: DMS 273 small cell lung
[65] = test system: SNB-19 CNS
[66] = test system: SNB-78 CNS
[67] = test system: OVCAR-4 ovarian
[68] = test system: HOP-18 NSCLC

N#CC(C#N)=C(N)/C(C#N)=C/c1cc(O)c(O)c(Br)c1
TGI [1]: > 100 µM
TGI [2]: > 100 µM
TGI [3]: > 100 µM
TGI [4]: > 100 µM
TGI [5]: > 100 µM
TGI [6]: > 100 µM
TGI [7]: > 100 µM
TGI [8]: > 100 µM
TGI [9]: > 100 µM
TGI [10]: > 92.3 µM
TGI [11]: > 100 µM
TGI [12]: > 100 µM
TGI [13]: > 100 µM
TGI [14]: > 100 µM
TGI [15]: > 100 µM
TGI [16]: 88.5 µM
TGI [17]: > 100 µM
TGI [18]: > 100 µM
TGI [19]: > 100 µM
TGI [20]: > 100 µM
TGI [21]: > 100 µM
TGI [22]: > 100 µM
TGI [23]: > 100 µM
TGI [24]: > 100 µM
TGI [25]: > 100 µM
TGI [26]: > 100 µM
TGI [27]: > 100 µM
TGI [28]: > 100 µM
TGI [29]: > 100 µM
TGI [30]: > 100 µM
TGI [31]: > 100 µM
TGI [32]: > 100 µM
TGI [33]: > 100 µM
TGI [34]: > 100 µM
TGI [35]: > 100 µM
TGI [36]: > 100 µM
TGI [37]: > 100 µM
TGI [38]: > 100 µM
TGI [39]: > 100 µM
TGI [40]: > 100 µM
TGI [41]: > 100 µM
TGI [42]: > 100 µM
TGI [43]: > 100 µM
TGI [44]: > 100 µM
TGI [45]: > 100 µM
TGI [46]: > 100 µM
TGI [47]: > 100 µM
TGI [48]: > 100 µM
TGI [49]: 93.6 µM
TGI [50]: > 100 µM
TGI [51]: > 100 µM
TGI [52]: > 100 µM
TGI [53]: > 100 µM
TGI [54]: > 100 µM
TGI [55]: > 100 µM
TGI [56]: > 100 µM
TGI [57]: > 100 µM
TGI [58]: > 79.1 µM
TGI [59]: > 100 µM
TGI [60]: > 100 µM
TGI [61]: > 100 µM
TGI [62]: > 100 µM
TGI [63]: > 100 µM
TGI [64]: > 100 µM
TGI [65]: > 100 µM
TGI [66]: > 100 µM
TGI [67]: > 100 µM

O=C(O)C1c2ccccc2C(C(=O)O)c2ccccc21 (centres undefined)
TGI [1]: > 100 µM
TGI [3]: > 100 µM
TGI [5]: > 100 µM
TGI [6]: > 100 µM
TGI [7]: > 100 µM
TGI [8]: > 100 µM
TGI [9]: > 100 µM
TGI [10]: > 100 µM
TGI [11]: > 100 µM
TGI [13]: > 100 µM
TGI [14]: > 100 µM
TGI [15]: > 100 µM
TGI [16]: > 100 µM
TGI [17]: > 100 µM
TGI [18]: > 100 µM
TGI [19]: > 100 µM
TGI [20]: > 100 µM
TGI [21]: > 100 µM
TGI [22]: > 100 µM
TGI [23]: > 100 µM
TGI [24]: > 100 µM
TGI [25]: > 100 µM
TGI [26]: > 100 µM
TGI [28]: > 100 µM
TGI [29]: > 100 µM
TGI [30]: > 100 µM
TGI [31]: > 100 µM
TGI [33]: > 100 µM
TGI [34]: > 100 µM
TGI [68]: > 100 µM
TGI [36]: > 100 µM
TGI [37]: > 100 µM
TGI [38]: > 100 µM
TGI [39]: > 100 µM
TGI [40]: > 100 µM
TGI [42]: > 100 µM
TGI [43]: > 100 µM
TGI [44]: > 100 µM
TGI [45]: > 100 µM
TGI [48]: > 100 µM
TGI [51]: > 100 µM
TGI [52]: > 100 µM
TGI [55]: > 100 µM
TGI [56]: > 100 µM
TGI [57]: > 100 µM
TGI [59]: > 100 µM
TGI [60]: > 100 µM
TGI [61]: > 100 µM
TGI [64]: > 100 µM
TGI [65]: > 100 µM
TGI [66]: > 100 µM
TGI [67]: > 100 µM

CCN(CC)C(=S)SC1CCOP(=O)(N(CCCl)CCCl)N1C (centres undefined)
TGI [1]: 46 µM
TGI [2]: > 100 µM
TGI [3]: > 67.5 µM
TGI [5]: 45.9 µM
TGI [6]: 19.3 µM
TGI [7]: > 100 µM
TGI [8]: 2.18 µM
TGI [10]: 32.2 µM
TGI [11]: 56.6 µM
TGI [12]: > 100 µM
TGI [13]: > 100 µM
TGI [15]: 49.9 µM
TGI [16]: 0.553 µM
TGI [17]: > 100 µM
TGI [18]: > 100 µM
TGI [19]: > 48.5 µM
TGI [20]: > 61.2 µM
TGI [21]: > 100 µM
TGI [22]: > 53.1 µM
TGI [23]: > 100 µM
TGI [24]: 49.2 µM
TGI [25]: 91.5 µM
TGI [26]: > 56.1 µM
TGI [27]: 42.2 µM
TGI [28]: 45.3 µM
TGI [29]: > 96.4 µM
TGI [30]: 43.9 µM
TGI [31]: 14.8 µM
TGI [32]: > 100 µM
TGI [33]: > 100 µM
TGI [34]: 50 µM
TGI [68]: > 100 µM
TGI [35]: > 100 µM
TGI [36]: 76.1 µM
TGI [37]: 30.8 µM
TGI [38]: > 52.5 µM
TGI [39]: > 86.8 µM
TGI [40]: > 80.1 µM
TGI [41]: > 100 µM
TGI [42]: 98.6 µM
TGI [43]: > 34.9 µM
TGI [44]: > 54.1 µM
TGI [45]: 21.3 µM
TGI [46]: > 100 µM
TGI [47]: > 100 µM
TGI [48]: > 58.5 µM
TGI [49]: > 100 µM
TGI [50]: > 96.4 µM
TGI [51]: 49.2 µM
TGI [52]: 17.3 µM
TGI [53]: > 100 µM
TGI [54]: > 100 µM
TGI [55]: 14.3 µM
TGI [56]: 43.1 µM
TGI [57]: > 100 µM
TGI [58]: > 97.3 µM
TGI [59]: > 100 µM
TGI [60]: > 100 µM
TGI [61]: > 68.7 µM
TGI [62]: > 100 µM
TGI [63]: > 100 µM
TGI [64]: > 79.4 µM
TGI [65]: > 100 µM
TGI [66]: > 100 µM
TGI [67]: 46.4 µM
